Where a name gives a salt, the structure may show the parent alone.
The compounds below were run against monoamine oxidase (MAO) (assay: MAO inhibition in vitro (brain)). Conditions: rat brain homogenate, 14C-5-HT or 14C-PEA as substrate (which one not given), pH 7.4, 37° C., 30 min pre-incubation, 10 min incubation.
Assay type: biochemical
Description: The MAO inhibiting activity of the compounds in accordance with the invention can be determined using standard methods.
The preparations to be tested were investigated in the in vitro test described hereinafter, which was based on the method of R. J. Wurtmann and J. A. Axelrod [Biochem. Pharmac. 12, 1439-41 (1963).
Isolated rat brains are homogenized in 0.1 molar potassium phosphate buffer (pH 7.4) in the ratio 1:9 (weight/volume), whereupon the homogenate is diluted with the same buffer in the ratio 1:4 (volume/volume) and stored at -20° C. A mixture of the following composition is used for the incubation:
100 μl of 1M phosphate buffer (pH 7.4);
100 μl of solubilizate of the substance to be tested in water or in aqueous dimethyl sulfoxide;
50 μl of rat brain homogenate; and as the substrate
50 μl of ^14 C-labelled serotonin (5-HT) or ^14 C-phenylethylamine (PEA), in each instance 100,000 decay per minute, corresponding to a final concentration of 2·10^-4 mol/l and, respectively, 2·10^-5 mol/l.
A pre-incubation at 37° C. is effected for 30 minutes prior to the addition of the substrate. The incubation (in the presence of the substrate) is likewise effected at 37° C. and lasts for 10 minutes. The reaction is stopped by the addition of 200 μl of 2N hydrochloric acid. In order to extract the deaminated product, the mixture is shaken for 10 minutes with 5 ml of diethyl ether or with 5 ml of n-heptane depending on whether 5-HT or PEA is used as the substrate, whereupon the mixture is centrifuged, the aqueous phase is frozen in a dry-ice bath and the organic phase is transferred into a counting glass.
The activity of the MAO in comparison to the control homogenates is determined on the basis of the β-counter values.
Under the above test conditions the activity is linear with respect to time and to the concentration of the homogenizate. The IC50 values were determined graphically as a log of the concentration-activity curve. The IC50 was defined as that concentration of a substance to be tested which reduces the activity of the MAO upon the substrate 5-HT or PEA by 50%.
Work on `COC[C@H]1CN(c2ccc([C@H]3CC[C@H](O)CC3)cc2)C(=O)O1` [Example 15, (R)-3-[4-(trans-4-Hydroxy-cyclohexyl)-phenyl]-5-methoxymethyl-oxazolidin-2-one] yielded an IC50 of 8.5 nM. For `COCC1CN(c2ccc(C3CCC(=O)CC3)cc2)C(=O)O1` (racemic) [Example 7, (RS)-3-[4-(4-Oxo-cyclohexyl)-phenyl]-5-methoxymethyl-oxazolidin-2-one], the IC50 was 10 nM. With `COCC1CN(c2ccc(C3CCCCC3)cc2)C(=O)O1` (racemic) [Example 2, (RS)-3-(4-Cyclohexyl-phenyl)-5-methoxymethyl-oxazolidin-2-one] the IC50 was 2 nM. `COC[C@H]1CN(c2ccc([C@H]3CC[C@H](OCCCN)CC3)cc2)C(=O)O1` [Example 71, (R)-3-[trans-4-(3-Amino-propoxy)-cyclohexyl]-phenyl]-5-methoxymethyl-oxazolidin-2-one hydrochloride] was tested, and the IC50 was 33 nM. Work on `COC[C@H]1CN(c2ccc(C3CCCCC3)cc2)C(=O)O1` [Example 6, (R)-3-(4-Cyclohexyl-phenyl)-5-methoxymethyl-oxazolidin-2-one] yielded an IC50 of 0.1 nM. `COCC1CN(c2ccc([C@H]3CC[C@H](OCCN)CC3)cc2)C(=O)O1` (stereo partly drawn) [Example 68, (RS)-3-[trans-4-[4-(5-Methoxymethyl-2-oxo-oxazolidin-3-yl)-phenyl]-cyclohexyloxy]ethanamine.HCl] showed an IC50 of 74 nM. `COC[C@H]1CN(c2ccc(C3CCC(=O)CC3)cc2)C(=O)O1` [Example 14, (R)-3-[4-(4-Oxo-cyclohexyl)-phenyl]-5-methoxymethyl-oxazolidin-2-one] gave an IC50 of 1 nM. With `COCC1CN(c2ccc([C@H]3CC[C@H](O)CC3)cc2)C(=O)O1` (mixture of isomers) [Example 8, (RS)-3-[4(trans-4-Hydroxy-cyclohexyl)-phenyl]-5-methoxymethyl-oxazolidin-2-one] the IC50 was 8.4 nM. `COC[C@H]1CN(c2ccc(OCC[C@@H](O)C(F)(F)F)cc2)C(=O)O1` [Befloxaton, reference compound] showed an IC50 of 1.9 nM. `COCC1CN(c2ccc(C3CCN(C(=O)/C=C/c4ccccc4)CC3)cc2)C(=O)O1` (racemic) [Example 59, (RS)-4-[4-(5-Methoxymethyl-2-oxo-oxazolidin-3-yl)-phenyl]-1-(1-oxo-3-phenyl-2,(E)-propenyl)-piperidine] was tested, and the IC50 was 10 nM. `COCC1CN(c2ccc([C@H]3CC[C@H](OCCC#N)CC3)cc2)C(=O)O1` (mixture of isomers) [Example 30, (RS)-3-[trans-4-[4-(5-Methoxymethyl-2-oxo-Oxazolidin-3-yl)-phenyl]cyclohexyloxy]-propionitrile] showed an IC50 of 5 nM. Work on `COC[C@H]1CN(c2ccc([C@H]3CC[C@H](CC#N)CC3)cc2)C(=O)O1` [Example 50] yielded an IC50 of 1 nM. `O=C1OC(CO)CN1c1ccc(C2CCCCC2)cc1` (racemic) [Example 1, (RS)-3-(4-Cyclohexyl-phenyl)-5-hydroxymethyl-oxazolidin-2-one] was tested, and the IC50 was 8.5 nM. In the case of `COCC1CN(c2ccc(C3CCC(CO)CC3)cc2)C(=O)O1` (racemic) [Example 38, (RS)-3-[4-(Cis- and trans-4-Hydroxymethyl-cyclohexyl)-phenyl]-5-methoxymethyl-oxazolidin-2-one], the IC50 is reported as 3 nM. With `COCC1CN(c2ccc([C@H]3CC[C@H](OCC#N)CC3)cc2)C(=O)O1` (mixture of isomers) [Example 66, (RS)-[trans-4-[4-(5-Methoxymethyl-2-oxo-oxazolidin-3-yl)-phenyl]-cyclohexyloxy]-acetonitrile] the IC50 was 2 nM. In the case of `COCC1CN(c2ccc(C3CCC(C)(O)CC3)cc2)C(=O)O1` (stereo not drawn) [Example 39, (RS)-3-[4-(cis or trans-4-Hydroxy-4-methyl-cyclohexyl)-phenyl]-5-methoxymethyl-oxazolidin-2-one], the IC50 is reported as 4 nM. For `COC[C@H]1CN(c2ccc([C@H]3CC[C@H](OCC#N)CC3)cc2)C(=O)O1` [Example 63, (R)-[trans-4-[4-(5-Methoxymethyl-2-oxo-oxazolidin-3-yl)-phenyl]-cyclohexyloxy]-acetonitrile], the IC50 was 1.6 nM. `COCC1CN(c2ccc([C@H]3CC[C@H](OC(C)=O)CC3)cc2)C(=O)O1` (mixture of isomers) [Example 33, Acetic acid (RS)-trans-4-[4-(5-methoxymethyl-2-oxo-oxazolidin-3-yl)-phenyl]-cyclohexylester] was tested, and the IC50 was 10 nM. In the case of `COCC1CN(c2ccc(C3CC4C=CC3C4)cc2)C(=O)O1` (stereo not drawn) [Example 18, 3-[(1RS,2SR,4RS)-4-Bicyclo[2.2.1]hept-5-en-2-yl-phenyl]-5-methoxymethyl-oxazolidin-2-one (R:S=1:1)], the IC50 is reported as 9 nM. Compound `COCC1CN(c2ccc([C@H]3CC[C@H](OC)CC3)cc2)C(=O)O1` (stereo partly drawn) [Example 16] has an IC50 of 6 nM. `COCC1CN(c2ccc([C@H]3CC[C@H](CC#N)CC3)cc2)C(=O)O1` (mixture of isomers) [Example 49, (RS)-[trans-4-[4-(5-Methoxymethyl-2-oxo-oxazolidin-3-yl)-phenyl]-cyclohexyl]-acetonitrile] showed an IC50 of 0.9 nM.
